Data reported in publication PMC11035696, “Prospective de novo drug design with deep interactome learning” (Nature Communications, 2024).
Several values for one entry are separate records, joined by “and”; a condition that tells them apart may be missing. Identical values can stand only once.

How the values were obtained:
[1] = target: CYCLO OXYGENASE 2 (Homo sapiens, UniProt P35354); experiment: Safety off-target panel, enzymatic; format: biochemical; details: single point
Text: (§1) Table S9-S12 list all targets, their species, inhibition (%) and assay type for the experiments conducted in the
(§2) off-targets. […] The numbers for mean
(§3) inhibition (%) represent single point measurements.
(§4) off-targets. […] The numbers for
(§5) mean inhibition (%) represent single point measurements.

[2] = target: ANGIOTENSIN CONVERTING ENZYME (Homo sapiens, UniProt P12821); experiment: Safety off-target panel, enzymatic; format: biochemical; details: single point
Text: as §1, §2, §3, §4, §5

[3] = target: GSK-3B (Homo sapiens, UniProt P49841); experiment: Safety off-target panel, enzymatic; format: biochemical; details: single point
GSK-3B, sequence (P49841 whole entry): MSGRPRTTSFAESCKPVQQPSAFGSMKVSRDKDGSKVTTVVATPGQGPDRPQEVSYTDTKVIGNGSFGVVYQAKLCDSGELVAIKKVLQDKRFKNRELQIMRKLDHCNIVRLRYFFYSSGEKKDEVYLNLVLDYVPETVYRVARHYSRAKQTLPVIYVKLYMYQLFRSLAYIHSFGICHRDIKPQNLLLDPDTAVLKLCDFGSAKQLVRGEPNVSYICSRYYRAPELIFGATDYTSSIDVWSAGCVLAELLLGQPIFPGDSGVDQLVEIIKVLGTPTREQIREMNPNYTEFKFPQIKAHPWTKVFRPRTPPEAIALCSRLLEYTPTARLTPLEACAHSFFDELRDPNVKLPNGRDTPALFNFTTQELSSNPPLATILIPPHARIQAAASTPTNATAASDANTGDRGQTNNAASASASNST
Text: as §1, §2, §3, §4, §5

[4] = target: ACETYLCHOLINESTERASE (Homo sapiens, UniProt P22303); experiment: Safety off-target panel, enzymatic; format: biochemical; details: single point
UniProt P22303, sequence (P22303 32-614): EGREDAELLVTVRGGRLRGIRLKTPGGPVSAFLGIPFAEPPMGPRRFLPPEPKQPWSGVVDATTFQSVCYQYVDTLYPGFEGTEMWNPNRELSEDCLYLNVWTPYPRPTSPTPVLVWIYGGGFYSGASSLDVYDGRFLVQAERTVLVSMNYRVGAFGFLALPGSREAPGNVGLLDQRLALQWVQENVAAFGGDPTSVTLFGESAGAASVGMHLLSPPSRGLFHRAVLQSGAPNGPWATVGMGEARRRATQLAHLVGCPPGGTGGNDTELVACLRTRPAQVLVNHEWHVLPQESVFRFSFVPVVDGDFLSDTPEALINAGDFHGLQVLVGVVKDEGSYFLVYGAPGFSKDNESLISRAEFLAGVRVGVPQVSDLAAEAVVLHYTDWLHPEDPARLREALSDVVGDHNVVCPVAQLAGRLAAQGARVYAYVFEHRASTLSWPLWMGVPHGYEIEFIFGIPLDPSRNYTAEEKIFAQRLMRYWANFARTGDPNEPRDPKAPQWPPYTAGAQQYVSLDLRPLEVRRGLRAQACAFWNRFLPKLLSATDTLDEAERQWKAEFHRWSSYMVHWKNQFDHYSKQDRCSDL
Text: as §1, §2, §3, §4, §5

[5] = target: PHOSPHODIESTERASE 3B (Homo sapiens, UniProt Q13370); experiment: Safety off-target panel, enzymatic; format: biochemical; details: single point
UniProt Q13370, sequence (Q13370 whole entry): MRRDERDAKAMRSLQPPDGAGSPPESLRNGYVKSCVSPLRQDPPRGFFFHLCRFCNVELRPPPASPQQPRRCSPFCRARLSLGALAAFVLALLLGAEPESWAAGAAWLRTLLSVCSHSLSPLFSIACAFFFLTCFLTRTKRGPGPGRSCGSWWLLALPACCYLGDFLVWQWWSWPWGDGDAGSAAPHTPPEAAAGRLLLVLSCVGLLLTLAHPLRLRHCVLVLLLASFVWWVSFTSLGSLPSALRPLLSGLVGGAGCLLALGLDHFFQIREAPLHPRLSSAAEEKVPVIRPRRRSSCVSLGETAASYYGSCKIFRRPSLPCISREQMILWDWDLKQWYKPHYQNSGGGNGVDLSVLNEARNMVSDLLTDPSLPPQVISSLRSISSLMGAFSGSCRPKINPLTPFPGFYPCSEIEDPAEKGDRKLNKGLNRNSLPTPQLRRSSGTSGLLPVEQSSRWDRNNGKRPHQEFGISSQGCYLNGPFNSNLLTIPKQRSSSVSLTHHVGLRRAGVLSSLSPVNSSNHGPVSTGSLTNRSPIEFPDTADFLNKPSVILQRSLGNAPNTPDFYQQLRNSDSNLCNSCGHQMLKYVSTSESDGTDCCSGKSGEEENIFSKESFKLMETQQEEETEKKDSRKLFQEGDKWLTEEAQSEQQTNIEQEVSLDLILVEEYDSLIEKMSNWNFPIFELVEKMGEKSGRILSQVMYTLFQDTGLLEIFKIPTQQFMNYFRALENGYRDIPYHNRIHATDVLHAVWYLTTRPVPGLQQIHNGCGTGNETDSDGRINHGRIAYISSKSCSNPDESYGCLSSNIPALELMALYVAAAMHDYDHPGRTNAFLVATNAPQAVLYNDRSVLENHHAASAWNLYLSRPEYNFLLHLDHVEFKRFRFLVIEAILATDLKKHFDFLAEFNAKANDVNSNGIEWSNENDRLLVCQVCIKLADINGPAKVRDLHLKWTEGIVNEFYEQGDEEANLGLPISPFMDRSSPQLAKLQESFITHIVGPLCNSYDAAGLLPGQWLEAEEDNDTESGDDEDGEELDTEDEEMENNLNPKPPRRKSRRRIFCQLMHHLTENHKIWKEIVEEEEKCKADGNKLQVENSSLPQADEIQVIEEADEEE
Text: as §1, §2, §3, §4, §5

[6] = tested on: HIV-1 PROTEASE; experiment: Safety off-target panel, enzymatic; format: biochemical; details: 10 µM, single point
Text: as §1, §2, §3, §4, §5

[7] = target: ABL1 (Homo sapiens, UniProt P00519); experiment: Safety off-target panel, enzymatic; format: biochemical; details: single point
ABL1, sequence (P00519 whole entry): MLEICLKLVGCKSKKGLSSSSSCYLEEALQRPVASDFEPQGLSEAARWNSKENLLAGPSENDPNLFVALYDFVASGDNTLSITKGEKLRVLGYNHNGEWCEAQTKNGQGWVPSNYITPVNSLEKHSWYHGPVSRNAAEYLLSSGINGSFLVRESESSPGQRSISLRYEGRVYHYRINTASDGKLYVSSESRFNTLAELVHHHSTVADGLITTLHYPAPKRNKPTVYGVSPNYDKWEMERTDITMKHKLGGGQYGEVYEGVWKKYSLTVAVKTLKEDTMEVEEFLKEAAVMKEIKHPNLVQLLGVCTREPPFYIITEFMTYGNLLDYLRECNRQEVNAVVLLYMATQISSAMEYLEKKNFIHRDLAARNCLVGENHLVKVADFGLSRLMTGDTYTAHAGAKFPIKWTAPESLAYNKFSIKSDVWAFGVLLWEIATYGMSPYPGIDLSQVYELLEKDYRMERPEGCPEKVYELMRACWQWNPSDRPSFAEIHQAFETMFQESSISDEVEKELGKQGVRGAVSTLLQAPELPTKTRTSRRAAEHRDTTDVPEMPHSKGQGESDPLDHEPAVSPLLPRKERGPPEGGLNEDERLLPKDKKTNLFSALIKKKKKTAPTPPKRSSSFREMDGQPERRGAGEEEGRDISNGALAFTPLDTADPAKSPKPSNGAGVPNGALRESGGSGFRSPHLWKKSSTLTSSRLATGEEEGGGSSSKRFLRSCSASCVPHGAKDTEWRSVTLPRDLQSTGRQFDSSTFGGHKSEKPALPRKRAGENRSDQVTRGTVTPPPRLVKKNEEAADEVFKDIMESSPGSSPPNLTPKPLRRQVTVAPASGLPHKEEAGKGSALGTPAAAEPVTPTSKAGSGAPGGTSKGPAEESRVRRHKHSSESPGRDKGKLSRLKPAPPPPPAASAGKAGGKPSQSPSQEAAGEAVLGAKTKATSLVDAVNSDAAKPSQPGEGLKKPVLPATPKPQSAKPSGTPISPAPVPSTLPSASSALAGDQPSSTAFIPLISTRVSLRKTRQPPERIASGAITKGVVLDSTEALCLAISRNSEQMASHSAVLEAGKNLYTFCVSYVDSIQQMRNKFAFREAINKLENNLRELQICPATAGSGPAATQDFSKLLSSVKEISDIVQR
Text: as §1, §2, §3, §4, §5

[8] = target: GSK-3A (Homo sapiens, UniProt P49840); experiment: Safety off-target panel, enzymatic; format: biochemical; details: single point
Text: as §1, §2, §3, §4, §5

[9] = target: MONOAMINE OXIDASE-A (Homo sapiens, UniProt P21397); experiment: Safety off-target panel, enzymatic; format: biochemical; details: single point
Text: as §1, §2, §3, §4, §5

[10] = target: ZAP70 (Homo sapiens, UniProt P43403); experiment: Safety off-target panel, enzymatic; format: biochemical; details: single point
ZAP70, sequence (P43403 whole entry): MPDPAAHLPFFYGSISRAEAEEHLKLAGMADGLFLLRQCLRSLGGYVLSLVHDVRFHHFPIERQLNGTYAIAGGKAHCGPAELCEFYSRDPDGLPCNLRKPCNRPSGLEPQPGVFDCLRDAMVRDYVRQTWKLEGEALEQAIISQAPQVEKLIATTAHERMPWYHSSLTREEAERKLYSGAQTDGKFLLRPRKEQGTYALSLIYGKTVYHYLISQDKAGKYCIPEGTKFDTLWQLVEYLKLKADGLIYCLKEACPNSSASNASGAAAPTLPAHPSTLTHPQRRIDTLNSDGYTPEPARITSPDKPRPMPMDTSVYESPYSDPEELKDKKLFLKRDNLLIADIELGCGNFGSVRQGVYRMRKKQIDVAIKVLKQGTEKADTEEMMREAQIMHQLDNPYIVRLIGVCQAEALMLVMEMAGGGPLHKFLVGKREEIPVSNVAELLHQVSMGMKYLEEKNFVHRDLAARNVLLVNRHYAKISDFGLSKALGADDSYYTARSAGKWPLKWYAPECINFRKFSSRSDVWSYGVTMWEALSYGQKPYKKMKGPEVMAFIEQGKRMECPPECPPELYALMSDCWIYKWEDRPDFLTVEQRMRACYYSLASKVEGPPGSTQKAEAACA
Text: as §1, §2, §3, §4, §5

[11] = target: CDK2 (Homo sapiens, UniProt P24941); experiment: Safety off-target panel, enzymatic; format: biochemical; details: single point
Text: as §1, §2, §3, §4, §5

[12] = target: PHOSPHODIESTERASE 4D2 (Homo sapiens, UniProt Q08499); experiment: Safety off-target panel, enzymatic; format: biochemical; details: single point
UniProt Q08499, sequence (Q08499 303-809 limits assumed): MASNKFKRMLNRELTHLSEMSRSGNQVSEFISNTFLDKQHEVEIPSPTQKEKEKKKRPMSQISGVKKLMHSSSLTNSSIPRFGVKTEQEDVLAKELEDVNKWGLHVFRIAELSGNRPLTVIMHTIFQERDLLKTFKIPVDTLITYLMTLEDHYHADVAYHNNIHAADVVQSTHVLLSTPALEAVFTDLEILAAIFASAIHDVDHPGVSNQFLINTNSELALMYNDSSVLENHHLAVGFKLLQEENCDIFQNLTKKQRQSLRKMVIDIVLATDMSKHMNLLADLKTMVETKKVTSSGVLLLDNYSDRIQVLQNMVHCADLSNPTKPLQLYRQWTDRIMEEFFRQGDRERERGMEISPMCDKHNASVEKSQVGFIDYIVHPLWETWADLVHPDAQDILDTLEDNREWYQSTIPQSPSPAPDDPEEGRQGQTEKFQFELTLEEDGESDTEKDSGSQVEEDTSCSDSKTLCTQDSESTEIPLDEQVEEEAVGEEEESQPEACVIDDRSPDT
Text: as §1, §2, §3, §4, §5

[13] = target: T1, liver X receptor (LXR)α (Homo sapiens, UniProt Q13133); experiment: Nuclear receptor selectivity profiling, hybrid reporter gene assay, LXRα; format: cell-based
T1 construct: LXRα (pFA-CMV-hLXRα-LBD[104], 1 μM TO901317); expressed in transfected cells; host or cells: HEK293T
T1 sequence (Q13133 209-447 limits assumed): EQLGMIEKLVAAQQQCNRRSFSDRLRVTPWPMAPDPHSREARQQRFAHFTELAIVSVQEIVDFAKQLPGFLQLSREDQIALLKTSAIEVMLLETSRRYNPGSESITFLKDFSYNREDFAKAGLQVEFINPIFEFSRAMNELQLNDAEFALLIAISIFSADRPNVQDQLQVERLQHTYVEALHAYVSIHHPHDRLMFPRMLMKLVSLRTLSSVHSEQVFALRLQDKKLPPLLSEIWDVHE
Procedure: (§6) PPAR activation was determined in uniform Gal4-hybrid reporter gene assays for the PPARα, PPARγ and PPARδ isoforms in HEK293T cells (German Collection of Microorganisms and Cell Culture GmbH, DSMZ) which were transiently transfected with pFR-Luc (Stratagene, La Jolla, CA, USA; reporter) and pRL-SV40 (Promega, Madison, WI, USA; internal control) and one pFA-CMV-hPPAR-LBD[97] clone, coding for the hinge region and ligand binding domain of the canonical isoform of human PPARα, PPARγ, PPARδ or respectively. Cells were cultured in Dulbecco’s modified Eagle’s medium (DMEM), high glucose supplemented with 10% fetal calf serum (FCS), sodium pyruvate (1 mM), penicillin (100 U ⋅ ml^-1), and streptomycin (100 μg ⋅ ml^-1) at 37 °C and 5% CO2 and seeded in 96-well plates (3 × 10^4 cells per well). After 24 h, medium was changed to Opti-MEM without supplements and cells were transiently transfected using Lipofectamine LTX reagent (Invitrogen) according to the manufacturer’s protocol. Five hours after transfection, cells were incubated with the test compounds in Opti-MEM supplemented with penicillin (100 U ⋅ ml^-1), streptomycin (100 μg ⋅ ml^-1) and 0.1% DMSO for 16 h before luciferase activity was measured using the Dual-Glo Luciferase Assay System (Promega) according to the manufacturer’s protocol on a Tecan Spark luminometer (Tecan Deutschland GmbH, Germany). Firefly luminescence was divided by Renilla luminescence and multiplied by 1000 resulting in relative light units (RLU) to normalize for transfection efficiency and cell growth. Fold activation was obtained by dividing the mean RLU of a test compound by the mean RLU of the untreated control. All samples were tested in at least three biologically independent experiments in duplicates. For dose-response curve fitting and calculation of EC50 values, the equation “[Agonist] versus response (variable slope—four parameters)” was used in GraphPad Prism (version 7.00, GraphPad Software, La Jolla, CA, USA) with fold activation data. The reference agonizts GW7647 (PPARα)[98],[99], pioglitazone (PPARγ)[100],[101] and L165,041 (PPARδ)[102],[103] were used to validate the assays and to monitor assay performance. Nuclear receptor selectivity profiling was performed with corresponding pFA-CMV-hNR-LBD clones and suitable reference agonizts on RARα (pFA-CMV-hRARα-LBD[104], 1 μM tretinoin), LXRα (pFA-CMV-hLXRα-LBD[104], 1 μM TO901317) and RXRα (pFA-CMV-h RXRα-LBD[105], 1 μM Bexarotene).

[14] = target: T2, retinoic acid receptor (RAR)α (Homo sapiens, UniProt P10276); experiment: Nuclear receptor selectivity profiling, hybrid reporter gene assay, RARα; format: cell-based
T2 construct: RARα (pFA-CMV-hRARα-LBD[104], 1 μM tretinoin); expressed in transfected cells; host or cells: HEK293T
T2 sequence (P10276 183-417 limits assumed): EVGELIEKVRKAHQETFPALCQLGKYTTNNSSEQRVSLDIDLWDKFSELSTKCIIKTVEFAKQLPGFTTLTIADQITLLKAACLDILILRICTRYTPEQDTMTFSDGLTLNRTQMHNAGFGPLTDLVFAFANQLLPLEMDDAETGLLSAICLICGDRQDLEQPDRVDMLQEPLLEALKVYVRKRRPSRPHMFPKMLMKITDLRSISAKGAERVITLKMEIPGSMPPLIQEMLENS
Procedure: Compounds 1–3 were characterized in a hybrid reporter gene assay for their agoniztic effect on human nuclear receptors PPARα/γ/δ, RXRα, FXRα, RARα in HEK293T cells. Compound 1 was tested in an isothermal titration calorimetry (ITC) assay to measure direct binding affinity to the ligand-binding domain of PPARγ. ADME properties were measured in standardized assays at Roche.
as §6

CYCLO OXYGENASE 2, sequence (P35354 18-604): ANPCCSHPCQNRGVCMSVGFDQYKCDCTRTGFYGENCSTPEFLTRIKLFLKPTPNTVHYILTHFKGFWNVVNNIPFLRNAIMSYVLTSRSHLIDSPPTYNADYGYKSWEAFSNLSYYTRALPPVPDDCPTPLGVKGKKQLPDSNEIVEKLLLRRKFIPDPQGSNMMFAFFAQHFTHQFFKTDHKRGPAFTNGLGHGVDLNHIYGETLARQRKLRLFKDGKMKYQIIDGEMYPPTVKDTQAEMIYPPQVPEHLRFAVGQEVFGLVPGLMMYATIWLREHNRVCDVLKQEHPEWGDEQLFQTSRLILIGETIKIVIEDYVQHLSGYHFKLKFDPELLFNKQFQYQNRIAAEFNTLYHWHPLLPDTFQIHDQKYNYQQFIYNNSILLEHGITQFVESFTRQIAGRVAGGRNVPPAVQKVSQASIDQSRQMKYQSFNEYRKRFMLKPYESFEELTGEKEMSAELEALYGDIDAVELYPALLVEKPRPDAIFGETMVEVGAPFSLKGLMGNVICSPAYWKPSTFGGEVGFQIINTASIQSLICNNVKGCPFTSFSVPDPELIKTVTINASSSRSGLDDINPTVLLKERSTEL

## COc1ccc(Oc2ccc3ncn(CCOc4ccc(CCC(=O)O)cc4)c3c2)cc1 [Compound 2]
[1]
  inhibition at 10 µM: -10.4%
[2]
  inhibition at 10 µM: -44.3%
[3]
  inhibition at 10 µM: -20.3%
[4]
  inhibition at 10 µM: 2%
[5]
  inhibition at 10 µM: -26.7%
[6]
  Mean inhibition (%): 0.2%
[7]
  inhibition at 10 µM: -11%
[8]
  inhibition at 10 µM: -8.8%
[9]
  inhibition at 10 µM: 4.4%
[10]
  inhibition at 10 µM: 3.5%
[11]
  inhibition at 10 µM: 45.9%
[12]
  inhibition at 10 µM: -3.8%
[13]; 3 µM
  LXRα reporter activation, replicate values (DMSO ctrl = 1,000): 0,566 and 1,566 and 1,418
[13]; 10 µM
  LXRα reporter activation, replicate values (DMSO ctrl = 1,000): 1,976 and 2,098 and 2,121
[14]; 3 µM
  RARα reporter activation, replicate values (DMSO ctrl = 1,000): 1,038 and 0,832 and 1,499
[14]; 10 µM
  RARα reporter activation, replicate values (DMSO ctrl = 1,000): 1,361 and 1,194 and 1,664

## Cc1nnc(-c2ccc(OCCCOc3ccc(CCC(=O)O)c(F)c3)c(F)c2)s1 [Compound 1]
[1]
  inhibition at 10 µM: -21.7%
[2]
  inhibition at 10 µM: -11.6%
[3]
  inhibition at 10 µM: 20.2%
[4]
  inhibition at 10 µM: 0%
[5]
  inhibition at 10 µM: 1.4%
[6]
  Mean inhibition (%): 8.2%
[7]
  inhibition at 10 µM: 4.4%
[8]
  inhibition at 10 µM: 39.6%
[9]
  inhibition at 10 µM: 13.3%
[10]
  inhibition at 10 µM: -0.3%
[11]
  inhibition at 10 µM: 3.6%
[12]
  inhibition at 10 µM: 3.1%
[13]; 3 µM
  LXRα reporter activation, replicate values (DMSO ctrl = 1,000): 1,029 and 1,028 and 1,248
[13]; 10 µM
  LXRα reporter activation, replicate values (DMSO ctrl = 1,000): 3,397 and 1,447 and 1,490
[14]; 3 µM
  RARα reporter activation, replicate values (DMSO ctrl = 1,000): 0,775 and 0,698 and 0,825
[14]; 10 µM
  RARα reporter activation, replicate values (DMSO ctrl = 1,000): 1,145 and 0,633 and 0,940
